Measurements as given in ChEMBL document CHEMBL5058646 (2022).

Legend:
[1] = molecular target: 5-hydroxytryptamine receptor 1D (Homo sapiens, UniProt P28221); test: GPCRScan assay: inhibition of 5-HT1D; parameters: radioligand conc. used [nm] 1.0 – 2.0, parental cells HEKT
[2] = molecular target: Adenosine receptor A2a (Homo sapiens) (UniProt P29274); test: GPCRScan assay: inhibition of A2A; settings: Compound concentration 10.0 uM
[3] = molecular target: Cyclin-dependent kinase-like 1 (Homo sapiens) (UniProt Q00532); test: CDKL1 SGC Tm panel (DSF); settings: Compound concentration 20.0 uM
Sequence of Cyclin-dependent kinase-like 1 (Homo sapiens) (Q00532 whole entry, canonical isoform): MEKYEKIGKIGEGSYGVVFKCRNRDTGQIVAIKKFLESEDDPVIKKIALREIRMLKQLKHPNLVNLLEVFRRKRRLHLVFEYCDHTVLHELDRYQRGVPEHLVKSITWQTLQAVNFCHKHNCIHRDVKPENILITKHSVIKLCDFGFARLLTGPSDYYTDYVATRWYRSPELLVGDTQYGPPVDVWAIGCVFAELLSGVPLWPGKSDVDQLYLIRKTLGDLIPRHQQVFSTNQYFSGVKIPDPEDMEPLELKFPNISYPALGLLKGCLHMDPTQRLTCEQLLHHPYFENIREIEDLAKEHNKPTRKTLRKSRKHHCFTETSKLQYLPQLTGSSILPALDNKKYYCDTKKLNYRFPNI

[4] = molecular target: Casein kinase I isoform delta (Homo sapiens) (UniProt P48730); test: CSNK1D SGC Tm panel (DSF); settings: Compound concentration 20.0 uM
Sequence of Casein kinase I isoform delta (Homo sapiens) (P48730 whole entry, looked up, canonical isoform): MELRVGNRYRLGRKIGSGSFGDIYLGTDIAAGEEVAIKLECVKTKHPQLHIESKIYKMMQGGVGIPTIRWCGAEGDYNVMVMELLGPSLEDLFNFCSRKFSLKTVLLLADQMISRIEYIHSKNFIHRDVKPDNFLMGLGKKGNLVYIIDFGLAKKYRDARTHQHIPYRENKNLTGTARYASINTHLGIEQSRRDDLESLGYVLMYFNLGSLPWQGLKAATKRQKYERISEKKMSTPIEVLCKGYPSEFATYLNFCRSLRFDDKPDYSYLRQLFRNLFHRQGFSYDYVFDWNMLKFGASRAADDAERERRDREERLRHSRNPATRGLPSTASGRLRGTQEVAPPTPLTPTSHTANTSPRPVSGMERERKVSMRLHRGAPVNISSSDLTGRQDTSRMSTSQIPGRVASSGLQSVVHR

[5] = molecular target: Cyclin-G-associated kinase (Homo sapiens) (UniProt O14976); test: GAK SGC Tm panel (DSF); settings: Compound concentration 20.0 uM
Sequence of Cyclin-G-associated kinase (Homo sapiens) (O14976 whole entry): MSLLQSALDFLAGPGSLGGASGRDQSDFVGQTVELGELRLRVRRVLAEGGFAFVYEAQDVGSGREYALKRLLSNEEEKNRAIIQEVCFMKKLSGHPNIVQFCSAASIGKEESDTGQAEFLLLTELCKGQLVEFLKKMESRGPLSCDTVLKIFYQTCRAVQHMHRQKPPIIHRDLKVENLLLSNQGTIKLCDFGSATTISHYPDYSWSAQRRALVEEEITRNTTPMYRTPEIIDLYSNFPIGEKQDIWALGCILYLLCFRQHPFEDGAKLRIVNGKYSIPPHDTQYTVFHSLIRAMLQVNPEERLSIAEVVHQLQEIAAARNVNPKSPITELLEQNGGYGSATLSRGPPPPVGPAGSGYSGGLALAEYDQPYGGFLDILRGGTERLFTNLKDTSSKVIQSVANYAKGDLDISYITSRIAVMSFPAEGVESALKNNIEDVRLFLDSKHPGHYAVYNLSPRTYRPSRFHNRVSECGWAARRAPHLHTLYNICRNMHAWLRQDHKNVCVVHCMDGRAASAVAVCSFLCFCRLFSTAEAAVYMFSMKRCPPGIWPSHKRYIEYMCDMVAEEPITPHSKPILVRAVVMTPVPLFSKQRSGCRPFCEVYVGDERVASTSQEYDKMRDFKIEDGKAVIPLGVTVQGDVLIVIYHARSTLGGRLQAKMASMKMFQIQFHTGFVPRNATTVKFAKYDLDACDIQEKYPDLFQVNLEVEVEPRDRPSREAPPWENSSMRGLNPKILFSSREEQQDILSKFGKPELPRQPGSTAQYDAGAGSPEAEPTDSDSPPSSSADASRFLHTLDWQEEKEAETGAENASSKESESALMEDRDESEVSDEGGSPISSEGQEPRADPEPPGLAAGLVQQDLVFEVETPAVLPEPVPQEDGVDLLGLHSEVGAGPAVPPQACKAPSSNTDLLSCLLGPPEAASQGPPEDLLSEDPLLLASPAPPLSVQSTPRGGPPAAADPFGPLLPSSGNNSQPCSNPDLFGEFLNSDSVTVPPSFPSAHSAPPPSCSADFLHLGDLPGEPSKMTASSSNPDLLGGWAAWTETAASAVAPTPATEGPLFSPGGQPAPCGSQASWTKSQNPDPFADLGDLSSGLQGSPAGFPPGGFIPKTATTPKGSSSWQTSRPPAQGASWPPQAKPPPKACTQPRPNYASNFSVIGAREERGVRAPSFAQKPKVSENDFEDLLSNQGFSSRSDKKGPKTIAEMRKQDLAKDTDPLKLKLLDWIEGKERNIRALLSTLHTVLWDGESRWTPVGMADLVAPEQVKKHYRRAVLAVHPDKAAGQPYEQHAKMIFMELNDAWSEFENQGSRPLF

[6] = molecular target: Mitogen-activated protein kinase kinase kinase 5 (Homo sapiens) (UniProt Q99683); test: MAP3K5 SGC Tm panel (DSF); settings: Compound concentration 20.0 uM
[7] = molecular target: 5-hydroxytryptamine receptor 2C (Homo sapiens) (UniProt P28335); settings: Compound concentration 10.0 uM
Sequence of 5-hydroxytryptamine receptor 2C (Homo sapiens) (P28335 whole entry, the tested form may be a part): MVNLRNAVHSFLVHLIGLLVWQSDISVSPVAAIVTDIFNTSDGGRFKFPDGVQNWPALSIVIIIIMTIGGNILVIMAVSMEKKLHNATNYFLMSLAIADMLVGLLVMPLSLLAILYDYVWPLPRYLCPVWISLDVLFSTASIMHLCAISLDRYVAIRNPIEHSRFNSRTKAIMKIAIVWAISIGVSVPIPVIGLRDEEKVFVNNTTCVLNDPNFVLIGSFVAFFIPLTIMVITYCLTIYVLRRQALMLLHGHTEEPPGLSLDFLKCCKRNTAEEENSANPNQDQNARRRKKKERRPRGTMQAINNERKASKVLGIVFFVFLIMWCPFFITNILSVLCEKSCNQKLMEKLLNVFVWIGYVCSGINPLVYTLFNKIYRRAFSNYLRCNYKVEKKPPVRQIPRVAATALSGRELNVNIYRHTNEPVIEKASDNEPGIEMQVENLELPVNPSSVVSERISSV

[8] = molecular target: T1, Zinc finger and BTB domain-containing protein 11 (Homo sapiens) (UniProt O95625); settings: SUD4, Compound concentration 1.0 uM
T1 sequence (whole entry): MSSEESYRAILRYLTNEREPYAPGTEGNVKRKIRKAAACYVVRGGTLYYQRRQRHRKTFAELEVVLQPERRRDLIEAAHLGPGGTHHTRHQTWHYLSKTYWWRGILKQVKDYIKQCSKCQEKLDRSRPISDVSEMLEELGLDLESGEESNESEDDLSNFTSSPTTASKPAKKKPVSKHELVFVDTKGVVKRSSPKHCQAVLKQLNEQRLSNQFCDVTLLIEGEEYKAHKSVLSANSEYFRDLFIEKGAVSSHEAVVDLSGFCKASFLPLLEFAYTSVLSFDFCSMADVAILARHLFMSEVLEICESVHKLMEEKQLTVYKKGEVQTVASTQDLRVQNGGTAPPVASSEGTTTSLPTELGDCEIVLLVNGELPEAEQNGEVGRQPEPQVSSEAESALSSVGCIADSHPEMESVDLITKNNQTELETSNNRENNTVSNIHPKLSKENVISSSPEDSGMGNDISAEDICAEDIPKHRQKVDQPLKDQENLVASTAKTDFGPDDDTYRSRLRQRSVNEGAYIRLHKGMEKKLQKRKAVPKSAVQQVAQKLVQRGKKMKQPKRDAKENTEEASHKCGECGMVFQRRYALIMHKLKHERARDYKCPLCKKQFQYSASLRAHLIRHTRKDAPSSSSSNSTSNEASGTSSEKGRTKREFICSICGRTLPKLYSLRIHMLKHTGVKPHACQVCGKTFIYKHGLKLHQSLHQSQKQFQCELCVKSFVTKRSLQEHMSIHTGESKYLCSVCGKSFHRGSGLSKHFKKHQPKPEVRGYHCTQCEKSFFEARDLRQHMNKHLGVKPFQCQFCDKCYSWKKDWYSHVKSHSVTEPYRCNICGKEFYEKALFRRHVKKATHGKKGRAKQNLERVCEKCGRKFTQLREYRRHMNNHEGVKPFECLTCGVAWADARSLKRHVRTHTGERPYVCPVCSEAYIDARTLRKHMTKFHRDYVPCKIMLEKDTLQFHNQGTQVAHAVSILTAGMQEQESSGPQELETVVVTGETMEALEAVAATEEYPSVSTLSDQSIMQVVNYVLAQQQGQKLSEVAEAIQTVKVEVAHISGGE

[9] = molecular target: Transcription regulator protein BACH2 (Homo sapiens) (UniProt Q9BYV9); settings: OCI-Ly1, Compound concentration 1.0 uM
Sequence of Transcription regulator protein BACH2 (Homo sapiens) (Q9BYV9 whole entry, the tested form may be a part): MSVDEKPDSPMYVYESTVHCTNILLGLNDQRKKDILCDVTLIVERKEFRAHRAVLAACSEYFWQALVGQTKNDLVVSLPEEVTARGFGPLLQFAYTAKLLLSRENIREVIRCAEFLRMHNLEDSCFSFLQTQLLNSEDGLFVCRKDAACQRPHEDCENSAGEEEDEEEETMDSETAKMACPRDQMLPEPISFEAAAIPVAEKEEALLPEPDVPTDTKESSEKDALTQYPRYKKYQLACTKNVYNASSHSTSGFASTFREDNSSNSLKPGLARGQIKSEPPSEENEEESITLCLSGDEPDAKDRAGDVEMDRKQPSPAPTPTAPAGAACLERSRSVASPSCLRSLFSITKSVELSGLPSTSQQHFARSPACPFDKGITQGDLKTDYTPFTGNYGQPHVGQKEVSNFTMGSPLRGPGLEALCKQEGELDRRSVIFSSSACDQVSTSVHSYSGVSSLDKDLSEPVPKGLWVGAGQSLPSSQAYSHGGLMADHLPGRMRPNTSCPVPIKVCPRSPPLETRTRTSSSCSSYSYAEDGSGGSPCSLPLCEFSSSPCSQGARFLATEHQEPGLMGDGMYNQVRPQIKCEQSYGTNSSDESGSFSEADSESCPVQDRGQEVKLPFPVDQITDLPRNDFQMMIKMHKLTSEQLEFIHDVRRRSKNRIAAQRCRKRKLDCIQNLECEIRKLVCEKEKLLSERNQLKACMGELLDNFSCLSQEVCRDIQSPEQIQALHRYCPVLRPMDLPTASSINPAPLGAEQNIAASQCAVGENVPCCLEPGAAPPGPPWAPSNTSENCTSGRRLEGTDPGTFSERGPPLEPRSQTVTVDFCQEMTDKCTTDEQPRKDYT

[10] = molecular target: T2, Zinc finger and BTB domain-containing protein 2 (Homo sapiens) (UniProt Q8N680); settings: OCI-Ly1, Compound concentration 1.0 uM
T2 sequence (whole entry): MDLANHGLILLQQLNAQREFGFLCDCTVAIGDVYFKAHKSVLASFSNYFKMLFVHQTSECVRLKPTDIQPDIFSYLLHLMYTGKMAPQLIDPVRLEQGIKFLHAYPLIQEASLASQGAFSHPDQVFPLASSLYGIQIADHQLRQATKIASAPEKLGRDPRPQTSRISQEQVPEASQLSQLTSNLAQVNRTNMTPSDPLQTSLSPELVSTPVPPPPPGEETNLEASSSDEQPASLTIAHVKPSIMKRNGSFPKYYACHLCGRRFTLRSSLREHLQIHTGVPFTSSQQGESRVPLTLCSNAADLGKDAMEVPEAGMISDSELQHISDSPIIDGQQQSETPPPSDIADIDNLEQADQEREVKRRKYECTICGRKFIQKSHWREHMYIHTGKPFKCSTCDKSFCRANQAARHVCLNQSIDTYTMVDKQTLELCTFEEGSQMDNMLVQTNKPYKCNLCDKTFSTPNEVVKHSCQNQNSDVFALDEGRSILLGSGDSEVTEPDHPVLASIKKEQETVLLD

[11] = molecular target: T3, Transcriptional regulator Kaiso (Homo sapiens) (UniProt Q86T24); settings: OCI-Ly1, Compound concentration 1.0 uM
T3 sequence (whole entry): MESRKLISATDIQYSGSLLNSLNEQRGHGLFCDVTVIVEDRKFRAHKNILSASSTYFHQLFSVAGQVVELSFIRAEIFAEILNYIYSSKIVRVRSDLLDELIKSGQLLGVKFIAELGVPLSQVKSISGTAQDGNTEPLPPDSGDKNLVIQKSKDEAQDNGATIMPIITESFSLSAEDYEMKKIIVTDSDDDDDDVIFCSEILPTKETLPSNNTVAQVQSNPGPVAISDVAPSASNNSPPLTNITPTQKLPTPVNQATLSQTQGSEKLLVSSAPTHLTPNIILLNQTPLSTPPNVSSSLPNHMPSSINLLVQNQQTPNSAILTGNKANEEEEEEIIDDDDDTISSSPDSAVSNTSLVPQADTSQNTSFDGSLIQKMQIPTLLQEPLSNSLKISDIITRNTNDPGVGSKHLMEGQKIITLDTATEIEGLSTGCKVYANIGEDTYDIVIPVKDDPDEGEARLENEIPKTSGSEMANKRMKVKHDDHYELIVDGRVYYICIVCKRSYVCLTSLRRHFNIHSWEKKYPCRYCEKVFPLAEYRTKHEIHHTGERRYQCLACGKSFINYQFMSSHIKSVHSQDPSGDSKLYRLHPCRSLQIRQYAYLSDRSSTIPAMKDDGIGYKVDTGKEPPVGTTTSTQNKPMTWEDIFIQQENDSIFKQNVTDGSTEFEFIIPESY

Sequence of Adenosine receptor A2a (Homo sapiens) (P29274 whole entry): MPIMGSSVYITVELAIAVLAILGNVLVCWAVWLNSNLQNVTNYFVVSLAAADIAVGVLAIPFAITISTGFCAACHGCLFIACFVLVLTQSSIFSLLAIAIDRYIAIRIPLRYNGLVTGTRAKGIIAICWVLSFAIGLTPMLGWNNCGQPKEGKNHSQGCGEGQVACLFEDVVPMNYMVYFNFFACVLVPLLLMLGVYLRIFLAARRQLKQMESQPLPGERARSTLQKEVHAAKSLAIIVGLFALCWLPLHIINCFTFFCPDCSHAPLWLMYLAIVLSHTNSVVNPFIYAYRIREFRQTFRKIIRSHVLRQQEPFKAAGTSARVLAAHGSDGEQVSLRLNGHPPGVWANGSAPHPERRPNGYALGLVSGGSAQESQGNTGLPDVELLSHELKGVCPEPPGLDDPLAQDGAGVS
Sequence of 5-hydroxytryptamine receptor 1D (P28221 whole entry): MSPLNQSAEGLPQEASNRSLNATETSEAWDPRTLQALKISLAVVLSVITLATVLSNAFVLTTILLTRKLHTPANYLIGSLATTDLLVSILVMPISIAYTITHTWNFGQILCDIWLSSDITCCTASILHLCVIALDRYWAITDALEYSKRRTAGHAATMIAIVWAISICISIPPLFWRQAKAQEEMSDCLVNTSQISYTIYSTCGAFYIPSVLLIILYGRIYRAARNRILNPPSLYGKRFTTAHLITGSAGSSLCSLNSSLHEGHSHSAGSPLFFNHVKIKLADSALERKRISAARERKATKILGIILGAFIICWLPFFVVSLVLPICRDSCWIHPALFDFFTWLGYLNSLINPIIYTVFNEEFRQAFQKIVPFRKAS

- Ki [1]: 6.17 µM
- inhibition [2]: -3.49%
- Tm [3]: 45 °C
- Tm [4]: 52 °C
- Tm [5]: 52 °C
- Tm [6]: 40 °C
- inhibition [7]: 16.1%
- LogFC [8]: -0.0504
- LogFC [9]: -0.00139
- LogFC [10]: 0.239
- LogFC [11]: -0.0964
Compound: C[C@@H]1CN(c2ncc(Cl)c(Nc3ccc4c(c3)n(CCC(C)(C)O)c(=O)n4C)n2)C[C@H](C)C1(F)F
